Laboratory results published in patent US20220370451A1, “INHIBITORS OF HUMAN IMMUNODEFICIENCY VIRUS REPLICATION” (VIIV HEALTHCARE UK ( No. 5) LIMITED, priority 2019, published 2022).
Where two headings read alike, the source gives them in different places.

Columns and labels:
Format in all cases: cell-based
uninfected MT2 cells = test: Compound cytotoxicity, XTT-based colorimetric assay
Experimental: (§1) Compound cytotoxicity and the corresponding CC50 values were determined using the same protocol as described in the antiviral assay except that uninfected cells were used. Cytotoxicity was assessed on day 4 in uninfected MT2 cells by using a XTT (2,3-bis[2-Methoxy-4-nitro-5-sulfophenyl]-2H-tetrazolium-5-carboxyanilide inner salt)-based colorimetric assay (Sigma-Aldrich, St Louis, Mo.).

recombinant NL4-3 virus = test: HIV cell culture assay (luciferase reporter antiviral activity)
Experimental: HIV cell culture assay—MT=2 cells, 293T cells and the proviral DNA clone of NL4-3 virus were obtained from the NIH AIDS Research and Reference Reagent Program. MT=2 cells were propagated in RPMI 1640 media supplemented with 10% heat inactivated fetal bovine serum (FBS), […] penicillin G and up to 100 units/mL streptomycin. The 293T cells were propagated in DMEM media supplemented with 10% heat inactivated FBS, […] penicillin G and […] streptomycin. A recombinant NL4-3 proviral clone, in which a section of the nef gene was replaced with the Renilla luciferase gene, was used to make the reference virus used in these studies. The recombinant virus was prepared through transfection of the recombinant NL4-3 proviral clone into 293T cells using Transit-293 Transfection Reagent from Mirus Bio LLC (Madison, Wis.). Supernatent was harvested after 2-3 days and the amount of virus present was titered in MT=2 cells using luciferase enzyme activity as a marker by measuring luciferase enzyme activity. Luciferase was quantitated using the EnduRen Live Cell Substrate from Promega (Madison, Wis.). Antiviral activities of compounds toward the recombinant virus were quantified by measuring luciferase activity in MT=2 cells infected for 4-5 days with the recombinant virus in the presence of serial dilutions of the compound.
The 50% effective concentration (EC50) was calculated by using the exponential form of the median effect equation where (Fa)=1/[1+(ED50/drug conc.)m] (Johnson V A, Byington RT. Infectivity Assay. In Techniques in HIV Research. ed. Aldovini A, Walker B D. 71-76. New York: Stockton Press.1990). The 50% inhibitory concentration (EC50) was calculated by using the exponential form of the median effect equation where percent inhibition=1/[1+(EC50/drug concentration)m], where m is a parameter that reflects the slope of the concentration-response curve.

[1] = Compound cytotoxicity, XTT-based colorimetric assay; conditions: human; uninfected MT2 cells, day 4, XTT
Experimental: as §1

[2] = Human immunodeficiency virus 1, NL43, MT2

Work on `Cc1nccnc1-c1ccc2c(=O)n(-c3ccc(Cl)c4c(NS(C)(=O)=O)nn(C)c34)c([C@H](Cc3cc(F)cc(F)c3)NC(=O)Cc3cn(C(C)C)c4ccccc34)nc2c1` [Example 8, (S)-N-(1-((3P)-3-(4-chloro-1-methyl-3-(methylsulfonamido)-1H-indazol-7-yl)-7-(3-methylpyrazin-2-yl)-4-oxo-3,4-dihydroquinazolin-2-yl)-2-(3,5-difluorophenyl)ethyl)-2-(1-isopropyl-1H-indol-3-yl)acetamide] yielded a CC50 (uninfected MT2 cells) greater than 500 nM and an EC50 (recombinant NL4-3 virus; MT-2 cells infected for 4-5 days with recombinant NL4-3 Renilla luciferase virus, read-out: EC50) of 0.45 nM.

`CC(C)[C@H](C(=O)N[C@@H](Cc1cc(F)cc(F)c1)c1nc2nc(-c3ccccc3F)ccc2c(=O)n1-c1ccc(Cl)c2c(NS(C)(=O)=O)nn(CC(F)(F)F)c12)n1ccc(C2CC2)n1` (atropisomer, axis not shown; (P)) [Example 26, N-((S)-1-((3P)-3-(4-chloro-3-(methylsulfonamido)-1-(2,2,2-trifluoroethyl)-1H-indazol-7-yl)-7-(2-fluorophenyl)-4-oxo-3,4-dihydropyrido[2,3-d]pyrimidin-2-yl)-2-(3,5-difluorophenyl)ethyl)-2-(3-cyclopropyl-1H-pyrazol-1-yl)-3-methylbutanamide] gave a CC50 at 4 days [1] greater than 500 nM and an EC50 (recombinant NL4-3 virus; [2]) of 1.9 nM.

Work on `Cc1nccnc1-c1ccc2c(=O)n(-c3ccc(Cl)c4c(NS(C)(=O)=O)nn(C)c34)c([C@H](Cc3cc(F)cc(F)c3)NC(=O)Cn3nc(C4CC4)cc3C)nc2c1` (atropisomer, axis not shown; (P)) [Example 10, (S)-N-(1-((3P)-3-(4-chloro-1-methyl-3-(methylsulfonamido)-1H-indazol-7-yl)-7-(3-methylpyrazin-2-yl)-4-oxo-3,4-dihydroquinazolin-2-yl)-2-(3,5-difluorophenyl)ethyl)-2-(3-cyclopropyl-5-methyl-1H-pyrazol-1-yl)acetamide] yielded a CC50 at 4 days [1] greater than 500 nM and an EC50 (recombinant NL4-3 virus; [2]) of 0.21 nM.

`Cn1nc(NS(C)(=O)=O)c2c(Cl)ccc(-n3c([C@H](Cc4cc(F)cc(F)c4)NC(=O)Cn4nc(C5CC5)cc4C(F)F)nc4cc(-c5ccccc5F)ccc4c3=O)c21` (atropisomer, axis not shown; (P)) [Example 29, (S)-N-(1-((3P)-3-(4-chloro-1-methyl-3-(methylsulfonamido)-1H-indazol-7-yl)-7-(2-fluorophenyl)-4-oxo-3,4-dihydroquinazolin-2-yl)-2-(3,5-difluorophenyl)ethyl)-2-(3-cyclopropyl-5-(difluoromethyl)-1H-pyrazol-1-yl)acetamide] gave a CC50 at 4 days [1] greater than 500 nM and an EC50 (recombinant NL4-3 virus; [2]) of 3.1 nM.

With `Cn1nc(NS(C)(=O)=O)c2c(Cl)ccc(-n3c([C@H](Cc4cc(F)cc(F)c4)NC(=O)Cn4ccc5ccccc54)nc4cc(-c5ccccc5F)ccc4c3=O)c21` [Example 30, (S)-N-(1-((3P)-3-(4-chloro-1-methyl-3-(methylsulfonamido)-1H-indazol-7-yl)-7-(2-fluorophenyl)-4-oxo-3,4-dihydroquinazolin-2-yl)-2-(3,5-difluorophenyl)ethyl)-2-(1H-indol-1-yl)acetamide] the CC50 at 4 days [1] was greater than 500 nM and the EC50 (recombinant NL4-3 virus; [2]) was 3 nM.

For `Cc1nccnc1-c1ccc2c(=O)n(-c3ccc(C)c4c(NS(C)(=O)=O)nn(C)c34)c(C(Cc3cc(F)cc(F)c3)NC(=O)Cn3nc(C(F)F)c4c3C(F)(F)[C@@H]3C[C@H]43)nc2c1` (stereo partly drawn) [Example 6, 2-((3bS,4aR)-3-(difluoromethyl)-5,5-difluoro-3b,4,4a,5-tetrahydro-1H-cyclopropa[3,4]cyclopenta[1,2-c]pyrazol-1-yl)-N-((S)-2-(3,5-difluorophenyl)-1-(3-(1,4-dimethyl-3-(methylsulfonamido)-1H-indazol-7-yl)-(3P)-7-(3-methylpyrazin-2-yl)-4-oxo-3,4-dihydroquinazolin-2-yl)ethyl)acetamide], the CC50 at 4 days [1] was greater than 500 nM and the EC50 (recombinant NL4-3 virus; [2]) was 0.056 nM.

For `Cc1cc(C)nc(-c2ccc3c(=O)n(-c4ccc(Cl)c5c(NS(C)(=O)=O)nn(C)c45)c([C@H](Cc4cc(F)cc(F)c4)NC(=O)Cn4nc(C5CC5)c5ccccc54)nc3c2)n1` (atropisomer, axis not shown; (P)) [Example 4, (S)-N-(1-((3P)-3-(4-chloro-1-methyl-3-(methylsulfonamido)-1H-indazol-7-yl)-7-(4,6-dimethylpyrimidin-2-yl)-4-oxo-3,4-dihydroquinazolin-2-yl)-2-(3,5-difluorophenyl)ethyl)-2-(3-cyclopropyl-1H-indazol-1-yl)acetamide], the CC50 at 4 days [1] was greater than 500 nM and the EC50 (recombinant NL4-3 virus; [2]) was 0.91 nM.
